In article PMC8217813, “Bridging Computational Vaccinology and Vaccine Development Through Systematic Identification, Characterization, and Downselection of Conserved and Variable Circumsporozoite Protein CD4 T Cell Epitopes From Diverse Plasmodium falciparum Strains” (Frontiers in Immunology, 2021):
pIC50: −log10 of the molar value. Peptide text beside a SMILES is read from it.

Key:
[1] = test system: CD4 T cells co-cultured with autologous DCs from PBMCs; assay type: cell-based, human; details: positive = Stimulation Index ≥1.5-fold above baseline, 5 µg/mL peptide
[2] = molecular target: HLA-DRB1*1301 (Homo sapiens, UniProt P01903+P01911, A100E/A169T/K41T/L162R/M171V/P40S/Q125H/Q178H/Q39Y/Q99D/R42S/S66N/T262R/W38E/Y61H); experiment: In vitro class II HLA binding competition assay; details: competition with fluorescent-labeled reference peptide, class II HLA monomers, 24-hours, test peptide 100,000 nM to 100 nM, time-resolved fluorescence
Outline: (§1)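 Test peptides at final concentrations of 100,000 nM to 100 nM competed with a fluorescent-labelled reference peptide for limiting class II HLA monomers over 24 hours. Complexes were captured on anti-HLA-DR plates and detected by europium time-resolved fluorescence. IC50 calculated from percent inhibition of reference binding.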

[3] = molecular target: HLA-DRB1*0301 (Homo sapiens, UniProt P01903+P01911, A100K/A102G/A103R/A169T/F55Y/I96L/K41T/L162R/M171V/P40S/Q125H/Q178H/Q39Y/R42S/S66N/T106N/T262R/W38E/Y61H); experiment: In vitro class II HLA binding competition assay; details: competition with fluorescent-labeled reference peptide, class II HLA monomers, 24-hours, test peptide 100,000 nM to 100 nM, time-resolved fluorescence
Outline: as §1

[4] = molecular target: T1, HLA-DRB1*1101 (Homo sapiens, UniProt P01903+P01911, A100R/A169T/A87E/I96F/K41T/L162R/M171V/P40S/Q125H/Q178H/Q39Y/Q99D/R42S/S66Y/T262R/V115G/W38E); experiment: In vitro class II HLA binding competition assay; details: competition with fluorescent-labeled reference peptide, class II HLA monomers, 24-hours, test peptide 100,000 nM to 100 nM, time-resolved fluorescence
T1 construct: purchased
Outline: as §1

[5] = molecular target: T2, HLA-DRB1*0401 (Homo sapiens, UniProt P01903+P01911, A100K/A169T/F76Y/I96L/K127E/L162R/M171V/N62H/P40V/Q125Y/R42H/S133A/S149N/S66Y/V115G/V209L/W38E); experiment: In vitro class II HLA binding competition assay
T2 construct: purchased
Outline: as §1

[6] = molecular target: HLA-DRB1*0701 (Homo sapiens, UniProt P01903+P01911, A100R/A102G/A103Q/D57E/D86V/E43K/F76Y/K127E/L162R/M171V/P40G/Q125H/Q99D/R33Q/R42Y/R54Q/S133A/S66F/T210M/V115G/Y107V/Y59L/Y89S); experiment: In vitro class II HLA binding competition assay
Outline: as §1

[7] = molecular target: T3, HLA-DRB1*0101 (Homo sapiens, UniProt P01903+P01911, A100R/D57E/F55L/F60I/F76Y/I96L/L162R/M171V/P40L/Q125E/R42F/V115G/Y59C); experiment: In vitro class II HLA binding competition assay; details: competition with fluorescent-labeled reference peptide, class II HLA monomers, 24-hours, test peptide 100,000 nM to 100 nM, time-resolved fluorescence
T3 construct: purchased
Outline: as §1

[8] = molecular target: T4, HLA-DRB1*1501 (Homo sapiens, UniProt P01903+P01911); experiment: In vitro class II HLA binding competition assay
T4 construct: purchased
Outline: as §1

[9] = molecular target: HLA-DRB1*0801 (Homo sapiens, UniProt P01903+P01911, A100R/A103L/A169T/D86S/F76Y/H45Y/I96F/K41T/L162R/M171V/P40S/Q125H/Q178H/Q39Y/Q99D/R218S/R42G/S66Y/V115G/W38E); experiment: In vitro class II HLA binding competition assay; details: competition with fluorescent-labeled reference peptide, class II HLA monomers, 24-hours, test peptide 100,000 nM to 100 nM, time-resolved fluorescence
Outline: as §1

CC[C@H](C)[C@H](NC(=O)[C@H](Cc1c[nH]cn1)NC(=O)[C@H](CCC(N)=O)NC(=O)[C@H](CC(=O)O)NC(C)=O)C(=O)N[C@@H](CCC(=O)O)C(=O)N[C@@H](CCCCN)C(=O)N[C@@H](Cc1ccc(O)cc1)C(=O)N[C@@H](CC(C)C)C(=O)N[C@@H](CCCCN)C(=O)N[C@H](C(=O)N[C@H](C(=O)N[C@@H](CCC(N)=O)C(=O)N[C@@H](CC(N)=O)C(=O)N[C@@H](CO)C(=O)N[C@@H](CC(C)C)C(=O)N[C@@H](CO)C(=O)N[C@H](C(=O)N[C@@H](CCC(=O)O)C(=O)N[C@@H](Cc1c[nH]c2ccccc12)C(=O)N[C@@H](CO)C(=O)N1CCC[C@H]1C(N)=O)[C@@H](C)O)[C@@H](C)CC)[C@@H](C)CC [ICS5] (Ac-DQHIEKYLKIIQNSLSTEWSP-NH2)
Percentage of donors demonstrating IFN-γ responses, DR1 ([1]; DR1 donors N=5, ICCS after 14-day co-culture): 80%
Percentage of donors demonstrating IL-2 responses, DR1 ([1]; DR1 donors N=5, ICCS): 20%
Percentage of donors demonstrating IL-4 responses, DR1 ([1]; DR1 donors N=5, ICCS): 0%
Percentage of donors demonstrating IL-10 responses, DR1 ([1]; DR1 donors N=5, ICCS): 0%
Percentage of donors demonstrating TNF-α responses, DR1 ([1]; DR1 donors N=5, ICCS): 40%
Percentage of donors demonstrating IFN-γ responses, DR3 ([1]; DR3 donors N=6, ICCS after 14-day co-culture): 33%
Percentage of donors demonstrating IL-2 responses, DR3 ([1]; DR3 donors N=6, ICCS): 0%
Percentage of donors demonstrating IL-4 responses, DR3 ([1]; DR3 donors N=6, ICCS): 33%
Percentage of donors demonstrating IL-10 responses, DR3 ([1]; DR3 donors N=6, ICCS): 17%
Percentage of donors demonstrating TNF-α responses, DR3 ([1]; DR3 donors N=6, ICCS): 17%
Percentage of donors demonstrating IFN-γ responses, DR4 ([1]; DR4 donors N=10, ICCS after 14-day co-culture): 60%
Percentage of donors demonstrating IL-2 responses, DR4 ([1]; DR4 donors N=10, ICCS): 40%
Percentage of donors demonstrating IL-4 responses, DR4 ([1]; DR4 donors N=10, ICCS): 0%
Percentage of donors demonstrating IL-10 responses, DR4 ([1]; DR4 donors N=10, ICCS): 0%
Percentage of donors demonstrating TNF-α responses, DR4 ([1]; DR4 donors N=10, ICCS): 40%
Percentage of donors demonstrating IFN-γ responses, DR7 ([1]; DR7 donors N=4, ICCS after 14-day co-culture): 75%
Percentage of donors demonstrating IL-2 responses, DR7 ([1]; DR7 donors N=4, ICCS): 25%
Percentage of donors demonstrating IL-4 responses, DR7 ([1]; DR7 donors N=4, ICCS): 25%
Percentage of donors demonstrating IL-10 responses, DR7 ([1]; DR7 donors N=4, ICCS): 0%
Percentage of donors demonstrating TNF-α responses, DR7 ([1]; DR7 donors N=4, ICCS): 0%
Percentage of donors demonstrating IFN-γ responses, DR8 ([1]; DR8 donors N=4, ICCS after 14-day co-culture): 25%
Percentage of donors demonstrating IL-2 responses, DR8 ([1]; DR8 donors N=4, ICCS): 0%
Percentage of donors demonstrating IL-4 responses, DR8 ([1]; DR8 donors N=4, ICCS): 0%
Percentage of donors demonstrating IL-10 responses, DR8 ([1]; DR8 donors N=4, ICCS): 0%
Percentage of donors demonstrating TNF-α responses, DR8 ([1]; DR8 donors N=4, ICCS): 75%
Percentage of donors demonstrating IFN-γ responses, DR9 ([1]; DR9 donors N=4, ICCS after 14-day co-culture): 50%
Percentage of donors demonstrating IL-2 responses, DR9 ([1]; DR9 donors N=4, ICCS): 25%
Percentage of donors demonstrating IL-4 responses, DR9 ([1]; DR9 donors N=4, ICCS): 0%
Percentage of donors demonstrating IL-10 responses, DR9 ([1]; DR9 donors N=4, ICCS): 25%
Percentage of donors demonstrating TNF-α responses, DR9 ([1]; DR9 donors N=4, ICCS): 50%
Percentage of donors demonstrating IFN-γ responses, DR11 ([1]; DR11 donors N=4, ICCS after 14-day co-culture): 100%
Percentage of donors demonstrating IL-2 responses, DR11 ([1]; DR11 donors N=4, ICCS): 50%
Percentage of donors demonstrating IL-4 responses, DR11 ([1]; DR11 donors N=4, ICCS): 0%
Percentage of donors demonstrating IL-10 responses, DR11 ([1]; DR11 donors N=4, ICCS): 0%
Percentage of donors demonstrating TNF-α responses, DR11 ([1]; DR11 donors N=4, ICCS): 75%
Percentage of donors demonstrating IFN-γ responses, DR13 ([1]; DR13 donors N=7, ICCS after 14-day co-culture): 43%
Percentage of donors demonstrating IL-2 responses, DR13 ([1]; DR13 donors N=7, ICCS): 14%
Percentage of donors demonstrating IL-4 responses, DR13 ([1]; DR13 donors N=7, ICCS): 14%
Percentage of donors demonstrating IL-10 responses, DR13 ([1]; DR13 donors N=7, ICCS): 0%
Percentage of donors demonstrating TNF-α responses, DR13 ([1]; DR13 donors N=7, ICCS): 43%
Percentage of donors demonstrating IFN-γ responses, DR15 ([1]; DR15 donors N=7, ICCS after 14-day co-culture): 43%
Percentage of donors demonstrating IL-2 responses, DR15 ([1]; DR15 donors N=7, ICCS): 0%
Percentage of donors demonstrating IL-4 responses, DR15 ([1]; DR15 donors N=7, ICCS): 0%
Percentage of donors demonstrating IL-10 responses, DR15 ([1]; DR15 donors N=7, ICCS): 14%
Percentage of donors demonstrating TNF-α responses, DR15 ([1]; DR15 donors N=7, ICCS): 29%
pIC50 [2]: 4.70
pIC50 [3]: 4.07
pIC50 [4]: 5.26
pIC50 [5]: 7.46
pIC50 [6]: 5.43
pIC50 [7]: 6.66
pIC50 [8]: 7.52
pIC50 [9]: 4.64
